Legend:
Type in all cases: cell-based
human TRPM5 [1] = biological target: T1, human TRPM5 (Homo sapiens, UniProt Q9NZQ8); experiment: TRPM5 membrane potential dye FLIPR assay in hTRPM5-HEK293 cells, ATP stimulated; conditions: for inhibition at 10 µM: 10 μM compound, 3 μM ATP, read-out: TRPM5 Activity (percent inhibition; enhancement is negative inhibition)
T1 construct: expressed in transfected cells
T1 sequence (Q9NZQ8 1-1165): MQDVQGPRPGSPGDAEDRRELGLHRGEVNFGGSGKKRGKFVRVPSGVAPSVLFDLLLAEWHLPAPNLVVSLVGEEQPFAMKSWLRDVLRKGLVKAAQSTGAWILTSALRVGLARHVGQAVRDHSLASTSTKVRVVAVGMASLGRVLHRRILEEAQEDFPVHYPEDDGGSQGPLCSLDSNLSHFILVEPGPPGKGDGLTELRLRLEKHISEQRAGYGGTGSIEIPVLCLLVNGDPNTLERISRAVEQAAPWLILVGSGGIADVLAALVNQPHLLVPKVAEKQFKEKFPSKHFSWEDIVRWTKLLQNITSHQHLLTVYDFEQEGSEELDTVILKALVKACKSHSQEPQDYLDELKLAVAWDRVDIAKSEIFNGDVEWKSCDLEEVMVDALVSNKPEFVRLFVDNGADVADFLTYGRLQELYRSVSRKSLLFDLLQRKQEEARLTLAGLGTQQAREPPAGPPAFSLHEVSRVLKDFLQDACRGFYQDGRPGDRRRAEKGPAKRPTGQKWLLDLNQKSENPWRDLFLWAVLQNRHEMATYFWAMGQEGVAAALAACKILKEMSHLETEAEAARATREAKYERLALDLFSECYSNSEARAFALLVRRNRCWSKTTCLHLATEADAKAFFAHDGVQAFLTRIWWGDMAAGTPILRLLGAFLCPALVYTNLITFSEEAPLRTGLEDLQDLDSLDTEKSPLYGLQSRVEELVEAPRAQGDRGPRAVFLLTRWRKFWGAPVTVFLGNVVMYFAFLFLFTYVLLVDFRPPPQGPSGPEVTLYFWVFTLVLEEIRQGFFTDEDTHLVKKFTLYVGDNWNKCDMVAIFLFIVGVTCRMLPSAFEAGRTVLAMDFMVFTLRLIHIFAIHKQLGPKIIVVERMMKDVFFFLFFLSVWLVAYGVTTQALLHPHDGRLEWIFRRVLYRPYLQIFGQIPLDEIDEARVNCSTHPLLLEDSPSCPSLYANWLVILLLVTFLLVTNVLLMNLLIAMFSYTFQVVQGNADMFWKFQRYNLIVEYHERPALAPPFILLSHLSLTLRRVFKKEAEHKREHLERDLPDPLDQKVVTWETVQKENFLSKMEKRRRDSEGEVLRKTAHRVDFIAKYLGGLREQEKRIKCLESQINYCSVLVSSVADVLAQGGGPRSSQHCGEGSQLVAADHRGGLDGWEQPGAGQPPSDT
Description: The activity of human TRPM5 ion channel was measured in live cells on a fluorescent imaging plate reader (FLIPR). The basis of the assay (shown in FIG. 1) is the calcium-dependent activation of the ion channel which occurs via by activation of a G-protein coupled receptor (GPCR). GPCR activation by an appropriate agonist causes a transient increase in […] Ca^2+ ion concentration which in turn causes the ion channel to open, letting in Na^+ ions. This influx causes a change in the membrane potential of the cell which can be monitored as a change in the fluorescent signal from voltage-dependent (membrane potential) fluorescent dyes.
For the screening assay, the human TRPM5 gene was cloned, put into HEK293 cells, and a stable, high expression clone was used for screening. Cells were grown in standard media at 37° C. The day before screening, the cells were removed from flasks and added to 384 well clear bottom plates (8K cells in 20 μL/well). On the assay day, 20 μL of membrane potential dye (Part No. R8123, Molecular Devices Corp.) was added to the cells and dye was allowed to be taken up, i.e., load, into the cells for 1 hr at 37° C. […] The assay was started by addition of 10 μL of solution from the compound plate into the cell plate. During this process, continuous fluorescent recordings were made simultaneously for all wells. After addition of the compound solution, the tips were automatically washed and a stimulation solution of 3 μM ATP to activate TRPM5 (an agonist for an endogenous purinurgic GPCR), was added to all wells of the cell plate. The height of the response was calculated and percent inhibition or enhancement values, versus negative control wells, was calculated for the test samples. Exemplary results are shown in the upper left graph of FIG. 3.

[2] = system: membrane potential response (non-specific ion channel blockers or enhancers); experiment: KCl counterscreen (membrane potential response, 10 mM KCl instead of ATP); conditions: Homo sapiens, 10 μM compound, read-out: KCl Counterscreen (percent inhibition)
Description: (§1) Two counterscreen assays were run on separate cell plates utilizing the same cells as described above. In the calcium counterscreen, the cells were loaded with a calcium sensitive dye (Calcium3 Dye, Part no. 8090, Molecular Devices Corp.) and stimulated by ATP to check for compounds that block the GPCR-mediated calcium activation step. Exemplary results of this assay are shown in the lower left graph of FIG. 3. In the KCl counterscreen, cells are stimulated with 10 mM KCl instead of ATP to check for compounds that inhibit the membrane potential response by virtue of being non-specific ion channel blockers or enhancers.

[3] = system: GPCR-mediated calcium activation step; experiment: Calcium counterscreen (calcium sensitive dye, ATP stimulated); conditions: Homo sapiens, 10 μM compound, read-out: Calcium Counterscreen (percent inhibition)
Description: as §1

human TRPM5 [4] = biological target: T1, human TRPM5; experiment: Whole-cell electrophysiological recording of TRPM5 current; conditions: 10 μM compound
Description: Standard whole-cell recordings were obtained from […] cells stably transfected with human TRPM5. Internal solution contained 135 mM CsGlutamate, 10 mM HEPES, 2 mM MgATP, 5 mM CaCl2 and 10 mM EGTA. External solution was HBSS (Gibco) buffered with 20 mM HEPES to pH 7.2. Currents were recorded with Multiclamp 700B amplifier using PClamp software; filtered at 1 kHz, sampled at 5 kHz. Holding potential was −80 mV. TRPM5 current in a single was activated by intracellular calcium dialysis (free calcium) and sampled with 200 ms ramps from −80 to 80 mV at 1 Hz. Current amplitudes were measured at −80 and 80 mV and plotted versus time. […] In essence, it appears that the compound makes the TRPM5 responsive lower or weaker Ca++ signals than is normally the case.

[5] = system: non-transfected, sham HEK cells; experiment: Whole-cell electrophysiological recording in sham cells

inhibition at 10 µM (human TRPM5 [1]) [%]	effect on TRPM5 activity (FIG. 3) (human TRPM5 [1]; 1, 3, 10 and 30 μM compound)	TRPM5 current stimulation by compound (human TRPM5 [4]; 30 μm calcium)	TRPM5 current in response to compound (human TRPM5 [4]; +80 mV, calcium 300 nm) [nA]	TRPM5 current activation by compound (human TRPM5 [4]; absence of calcium)	Compound	inhibition at 10 µM [2] [%]	inhibition at 10 µM [3] [%]	current in sham cells [5]
-139	–	–	–	–	CCOC(=O)C/N=c1\sc2ccccc2n1C [Example 1, Ethyl 2-(3-Methylbenzo[d]thiazol-2(3H)-ylideneamino)acetate]	10	-18	–
-136	–	–	–	–	COc1ccccc1OCCSc1nc2ccccc2[nH]1 [Example 2, 2-(2-(2-Methoxyphenoxy)ethylthio)-1H-benzimidazole]	-3	19	–
-113	–	–	–	–	COC(=O)c1sccc1Oc1ccc([N+](=O)[O-])cn1 [Example 3]	17	11	–
-101	–	–	–	–	CCc1nnc2nc(-c3ccc(Cl)c([N+](=O)[O-])c3)[nH]n12 [Example 4, 6-(4-Chloro-3-nitrophenyl)-3-ethyl-5H-[1,2,4]triazolo[4,3-b][1,2,4]triazole]	-32	13	–
-100	–	–	–	–	Cc1ccc(-c2cn3ncsc3n2)cc1 [Example 5, 6-p-Tolylimidazo[2,1-b][1,3,4]thiadiazole]	7	23	–
-98	–	–	–	–	O=C(Nc1ccccc1)N1CCCN(c2nc(-c3ccccc3)ns2)CC1 [Example 6, N-Phenyl-4-(3-phenyl-1,2,4-thiadiazol-5-yl)-1,4-diazepane-1-carboxamide]	16	-69	–
-95	–	–	–	–	COc1cccc(OC)c1OCCSc1nc2ccccc2n1CCO [Example 7, 2-(2-(2-(2,6-Dimethoxyphenoxy)ethylthio)-1H-benzimidazol-1-yl)ethanol]	-4	-15	–
-76	selective enhancement	–	–	–	CCn1c(C)nc([N+](=O)[O-])c1Sc1ccc(Cl)cn1 [Example 8, 1-Ethyl-2-methyl-4-nitro-5-(5-chloropyridin-2-ylthio)imidazole]	7	-22	–
-73	–	–	–	–	CC1(C)C(c2ccccc2)=NC(c2ccccc2)=[N+]1[O-] [Example 9, 2,4-Diphenyl-5,5-dimethylimidazole-1-oxide]	17	-15	–
-73	–	further stimulation	> 5	no current activation	C=CCNC(=S)/N=c1\sc2ccccc2n1C [Example 10, 1-Allyl-3-(3-methylbenzo[d]thiazol-2-(3H)-ylidene)thiourea]	1	0	no significant current
-68	–	–	–	–	N=c1sccn1CC(=O)c1cccc([N+](=O)[O-])c1 [Example 11, 2-(2-Iminothiazol-3(2H)-yl)-1-(3-nitrophenyl)ethanone]	21	-12	–
-62	–	–	–	–	Cc1csc(-c2cn(C(C)C)c(=O)n(Cc3ccccc3)c2=O)n1 [Example 12]	3	-5	–
-57	–	–	–	–	COc1c(Cl)cccc1-c1cn2ccccc2n1 [Example 13, 2-(3-Chloro-2-methoxyphenyl)imidazo[1,2-a]pyridine]	-10	9	–
-55	–	–	–	–	CCc1ccc(-c2csc(NC(=O)c3cc(OC)cc(OC)c3)n2)cc1 [Example 14, N-(4-(4-Ethylphenyl)thiazol-2-yl)-3,5-dimethoxybenzamide]	-101	10	–
-48	–	–	–	–	O=c1sc2ccccc2c2c1ncn2-c1ccccc1 [Example 15, 1-Phenylthiochromeno[4,3-d]imidazol-4(1H)-one]	-9	-22	–
-23	–	–	–	–	CN(C)CC(=O)Nc1nc(-c2ccc(Cl)cc2)cs1 [Example 16, N-(4-(4-Chlorophenyl)thiazol-2-yl)-2-(dimethylamino)acetamide]	-9	-25	–
-16	–	–	–	–	Cn1nc(C(F)(F)F)c(C(=O)Nc2ccc(C(F)(F)F)cc2)c1Cl [Example 17, 5-Chloro-1-methyl-3-(trifluoromethyl)-N-(4-(trifluoromethyl)phenyl)-1H-pyrazole-4-carboxamide]	-25	4	–

— patent publication US7674831B2, “Heterocyclic compounds as sweetener enhancers” (Redpoint Bio Corporation, priority 2006, dated 2010)
